30 molecules from paper PMC4835159 (Journal of Medicinal Chemistry, 2016) can be followed below.

Molecules are shown by their SMILES. Values after ≈ are worked out from the molar mass of the structure shown. Values joined by “and” are separate entries in the source; they are usually repeats but may differ in a detail not shown here. Equal entries are not always repeated. Where two headings read alike, the source gives them in different places.

In test [1] the target is T1, CYP121 (Mycobacterium tuberculosis, UniProt P9WPP7). The format is binding.
T1 sequence (P9WPP7 whole entry): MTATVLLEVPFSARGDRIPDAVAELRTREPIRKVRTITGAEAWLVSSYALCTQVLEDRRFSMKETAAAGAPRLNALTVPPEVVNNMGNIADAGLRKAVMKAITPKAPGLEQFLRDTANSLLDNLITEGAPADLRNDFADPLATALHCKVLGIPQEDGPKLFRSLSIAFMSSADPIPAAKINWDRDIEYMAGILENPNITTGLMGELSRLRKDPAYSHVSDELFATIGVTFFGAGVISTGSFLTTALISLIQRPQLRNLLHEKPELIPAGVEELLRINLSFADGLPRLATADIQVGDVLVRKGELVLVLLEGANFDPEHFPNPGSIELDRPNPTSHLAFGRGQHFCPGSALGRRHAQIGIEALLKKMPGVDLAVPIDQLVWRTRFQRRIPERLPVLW
For the next test, the system named is Mtb H37Rv. Briefly: Antimycobacterial activity assay (MIC90). It is filed as cell-based, Mycobacterium tuberculosis. Also noted: key to MIC90: “N” indicates that compounds did not produce any significant cell death within the tested concentration range. Conditions: triplicate, 0–100 μM, 2 weeks.
In test [2] the target is T1, CYP121. The test can be described thus: Single shot UV–vis absorbance assay (Soret band shift, competition with type II inhibitor) on CYP121. The format is binding. Conditions: for Δλmax (change in wavelength of the Soret band): CYP121 5 μM, vs 1% v/v DMSO-d6 alone (λmax = 416.5 nm), single shot; for shifts in the CYP121 optical spectrum: UV–vis spectroscopy.
For test [3], the target named is T1, CYP121. Briefly: Native mass spectrometry of CYP121 with ligands. It is filed as binding.
The mark [4] stands for this setting: Gibbs free energy of binding to CYP121 divided by number of heavy atoms (ΔG/HA).

In the case of `Nc1[nH]nc(-c2cccc(O)c2)c1-c1ccc(O)cc1` [14b, 3-(5-Amino-4-(4-hydroxyphenyl)-1H-pyrazol-3-yl)phenol], the “LE (ligand efficiency)” value at CYP121 [1] (setting [4]) was determined as 0.29.

Regarding `Nc1[nH]nc(-c2cccc(F)c2)c1-c1ccc(O)cc1` [14c, 4-(5-Amino-3-(3-fluorophenyl)-1H-pyrazol-4-yl)phenol], on CYP121 [1] (setting [4]), the “LE (ligand efficiency)” value worked out at 0.25. Moreover, the MIC90 (as a rule, the lowest concentration that inhibits either 90% of growth or 90% of the strains tested, depending on the study) in the test with Mtb H37Rv is reported as “N”.

With `Nc1[nH]nc(-c2ccc(O)cc2O)c1-c1ccc(O)cc1` [14d, 4-(5-amino-4-(4-hydroxyphenyl)-1H-pyrazol-3-yl)benzene-1,3-diol], the “LE (ligand efficiency)” value on CYP121 [1] (setting [4]) is on record as 0.24.

`Nc1[nH]ncc1-c1cccc(-c2cccnc2)c1` [18e, 4-(3-(Pyridin-3-yl)phenyl)-1H-pyrazol-5-amine]: the “Δλmax (change in wavelength of the Soret band)” value at CYP121 [2] was found to be 0 nm.

With `Nc1[nH]ncc1-c1cccc(-c2ccncc2)c1` [18f, 4-(3-(Pyridin-4-yl)phenyl)-1H-pyrazol-5-amine], the “Δλmax (change in wavelength of the Soret band)” value on CYP121 [2] stood at 1 nm.

With `Nc1[nH]ncc1-c1cccc(-c2ccc3[nH]ccc3c2)c1` [18g, 4-(3-(1H-Indol-5-yl)phenyl)-1H-pyrazol-5-amine], the “Δλmax (change in wavelength of the Soret band)” value at CYP121 [2] is reported as 0 nm.

`Nc1[nH]ncc1-c1cccc(-c2ccc3cc[nH]c3c2)c1` [18h, 4-(3-(1H-Indol-6-yl)phenyl)-1H-pyrazol-5-amine]: the “Δλmax (change in wavelength of the Soret band)” value at CYP121 [2] is on record as 0 nm.

As to `Nc1[nH]ncc1-c1cccc(-c2cn[nH]c2)c1` [18i, 4-(3-(1H-Pyrazol-4-yl)phenyl)-1H-pyrazol-5-amine], the “Δλmax (change in wavelength of the Soret band)” value on CYP121 [2] is on record as 0 nm.

Turning to `Nc1cccc(-c2cccc(-c3cn[nH]c3N)c2)c1` [19a, 4-(3′-Amino-[1,1′-biphenyl]-3-yl)-1H-pyrazol-5-amine], the “LE (ligand efficiency)” value on CYP121 [1] is reported as 0.35. Moreover, the MIC90 entry in the test with Mtb H37Rv is “N”. For the same molecule, on CYP121 [3] (Protein-Ligand Ratio 1:0.5), the “Monomer (%) of CYP121” value is given as 23%; the “ligand binding stoichiometry, CYP121 Dimer” value was determined as 0; the “ligand binding stoichiometry, CYP121 Monomer” value was found to be 0. Besides, on CYP121 [3] (Protein-Ligand Ratio 1:1), the “Monomer (%) of CYP121” value turned out to be 28%; the “ligand binding stoichiometry, CYP121 Dimer” value came to 0; the “ligand binding stoichiometry, CYP121 Monomer” value is 0. Also, on CYP121 [3] (Protein-Ligand Ratio 1:25), the “Monomer (%) of CYP121” value came out at 33%; the “ligand binding stoichiometry, CYP121 Dimer” value is on record as 2; the “ligand binding stoichiometry, CYP121 Monomer” value is on record as 1.

`Nc1cccc(-c2cc(-c3cn[nH]c3N)ccc2OCc2ccccc2)c1` [19b, 4-(3′-Amino-6-(benzyloxy)-[1,1′-biphenyl]-3-yl)-1H-pyrazol-5-amine]: at CYP121 [1] (setting [4]), the “LE (ligand efficiency)” value came out at 0.23. Further, the “shifts in the CYP121 optical spectrum” value at CYP121 [2] is listed as “type II shifts”.

As for `COc1ccc(-c2cn[nH]c2N)cc1-c1cccc(N)c1` [19c, 4-(3′-Amino-6-methoxy-[1,1′-biphenyl]-3-yl)-1H-pyrazol-5-amine], the “LE (ligand efficiency)” value on CYP121 [1] (setting [4]) is 0.27. The “shifts in the CYP121 optical spectrum” value at CYP121 [2] is “type II shifts”.

On to `COc1ccc(-c2n[nH]c(N)c2-c2cccc(-c3cccc(N)c3)c2)cc1` [24a, 4-(3′-Amino-[1,1′-biphenyl]-3-yl)-3-(4-methoxyphenyl)-1H-pyrazol-5-amine], for which the “LE (ligand efficiency)” value on CYP121 [1] (setting [4]) is given as 0.38. Besides, the “shifts in the CYP121 optical spectrum” value at CYP121 [2] is given as “type II shifts”. Further, the MIC90 in the test with Mtb H37Rv (Mycobacterium tuberculosis, 336 h, read-out: MIC90) was found to be 50 µM (≈ 17.8 µg/mL). Moreover, the “Monomer (%) of CYP121” value is listed as 19% at CYP121 [3] (Protein-Ligand Ratio 1:0.5), 16% on CYP121 [3] (Protein-Ligand Ratio 1:1) and 16% at CYP121 [3] (Protein-Ligand Ratio 1:25). Further, the “ligand binding stoichiometry, CYP121 Dimer” value at CYP121 [3] (Protein-Ligand Ratio 1:0.5) came to 1; on CYP121 [3] (Protein-Ligand Ratio 1:1) it was 1; on CYP121 [3] (Protein-Ligand Ratio 1:25), 2. Besides, the “ligand binding stoichiometry, CYP121 Monomer” value at CYP121 [3] (Protein-Ligand Ratio 1:0.5) is 0; on CYP121 [3] (Protein-Ligand Ratio 1:1) it was 1; at CYP121 [3] (Protein-Ligand Ratio 1:25), 1.

`Oc1ccc(-c2n[nH]c(NCc3ccc(O)c(Br)c3)c2-c2ccc(O)cc2)cc1` [26b, 4,4′-(5-((3-Bromo-4-hydroxybenzyl)amino)-1H-pyrazole-3,4-diyl)diphenol]: the “LE (ligand efficiency)” value on CYP121 [1] (setting [4]) was found to be 0.22.

For `Oc1ccc(-c2n[nH]c(NCc3ccsc3)c2-c2ccc(O)cc2)cc1` [26c, 4,4′-(5-((Thiophen-3-ylmethyl)amino)-1H-pyrazole-3,4-diyl)diphenol], the “LE (ligand efficiency)” value on CYP121 [1] (setting [4]) was 0.25.

As for `Oc1ccc(-c2n[nH]c(NCc3ccco3)c2-c2ccc(O)cc2)cc1` [26d, 4,4′-(5-((Furan-2-ylmethyl)amino)-1H-pyrazole-3,4-diyl)diphenol], the “LE (ligand efficiency)” value at CYP121 [1] (setting [4]) was 0.24.

Take `Oc1ccc(-c2n[nH]c(NCc3ccc4[nH]ccc4c3)c2-c2ccc(O)cc2)cc1` [26e, 4,4′-(5-(((1H-Indol-5-yl)methyl)amino)-1H-pyrazole-3,4-diyl)diphenol]: the “LE (ligand efficiency)” value on CYP121 [1] (setting [4]) was 0.19.

Consider `Oc1ccc(-c2n[nH]c(NCc3cccc4[nH]ncc34)c2-c2ccc(O)cc2)cc1` [26f, 4,4′-(5-(((1H-Indazol-4-yl)methyl)amino)-1H-pyrazole-3,4-diyl)diphenol], for which the “LE (ligand efficiency)” value at CYP121 [1] (setting [4]) is given as 0.20.

Take `Oc1ccc(-c2n[nH]c(NCc3ccncc3)c2-c2ccc(O)cc2)cc1` [26g, 4,4′-(5-((Pyridin-4-ylmethyl)amino)-1H-pyrazole-3,4-diyl)diphenol]: the “LE (ligand efficiency)” value at CYP121 [1] (setting [4]) is reported as 0.18.

For `Oc1ccc(-c2n[nH]c(NCc3c[nH]cn3)c2-c2ccc(O)cc2)cc1` [26h, 4,4′-(5-(((1H-Imidazol-4-yl)methyl)amino)-1H-pyrazole-3,4-diyl)diphenol], at CYP121 [1] (setting [4]), the “LE (ligand efficiency)” value was found to be 0.19. At CYP121 [2] (ligand 100 μM, CYP121), the “Δλmax (type II shift)” value is “+1.5 nm”.

For the molecule `O=C(Nc1[nH]nc(-c2ccc(O)cc2)c1-c1ccc(O)cc1)c1ccccc1` [29a, N-(3,4-Bis(4-hydroxyphenyl)-1H-pyrazol-5-yl)benzamide], the “LE (ligand efficiency)” value on CYP121 [1] (setting [4]) was 0.18.

`O=C(Nc1[nH]nc(-c2ccc(O)cc2)c1-c1ccc(O)cc1)c1ccc(O)cc1` [29b, N-(3,4-Bis(4-hydroxyphenyl)-1H-pyrazol-5-yl)-4-hydroxybenzamide]: the “LE (ligand efficiency)” value at CYP121 [1] (setting [4]) is listed as 0.19.

With `O=C(Nc1[nH]nc(-c2ccc(O)cc2)c1-c1ccc(O)cc1)c1ccncc1` [29c, N-(3,4-Bis(4-hydroxyphenyl)-1H-pyrazol-5-yl)isonicotinamide], at CYP121 [1] (setting [4]), the “LE (ligand efficiency)” value worked out at 0.16. In the test on Mtb H37Rv, the MIC90 result is on record as “N”.

Consider `CO[C@H]1/C=C/O[C@@]2(C)Oc3c(C)c(O)c4c(O)c(c(/C=N/N5CCN(C)CC5)c(O)c4c3C2=O)NC(=O)/C(C)=C\C=C\[C@H](C)[C@H](O)[C@@H](C)[C@@H](O)[C@@H](C)[C@H](OC(C)=O)[C@@H]1C` [Rifampicin, reference compound], for which 0.75 µM (≈ 0.617 µg/mL) was the least that counted as inhibitory with Mtb H37Rv (Mycobacterium tuberculosis, 336 h) (MIC).

Regarding `Oc1ccc(Nc2[nH]nc(-c3ccc(O)cc3)c2-c2ccc(O)cc2)cc1` [compound 2, 4,4'-(5-((4-hydroxyphenyl)amino)-1H-pyrazole-3,4-diyl)diphenol], at CYP121 [1] (setting [4]), the “LE (ligand efficiency)” value was 0.24 and 0.23.

For the molecule `Nc1cc(-c2ccc(O)cc2)n[nH]1` [compound 3, 4-(5-Amino-1H-pyrazol-3-yl)phenol], at CYP121 [1] (setting [4]), the “LE (ligand efficiency)” value is 0.30.

In the case of `Nc1[nH]ncc1-c1ccc(O)cc1` [compound 4, 4-(5-amino-1H-pyrazol-4-yl)phenol], the “LE (ligand efficiency)” value at CYP121 [1] (setting [4]) was 0.29.

With `Oc1ccc(Nc2cc(-c3ccc(O)cc3)n[nH]2)cc1` [compound 6, 4-((3-(4-Hydroxyphenyl)-1H-pyrazol-5-yl)amino)phenol], the “LE (ligand efficiency)” value on CYP121 [1] (setting [4]) worked out at 0.34. For the same molecule, the “Monomer (%) of CYP121” value at CYP121 [3] (Protein-Ligand Ratio 1:0.5) came out at 11%; on CYP121 [3] (Protein-Ligand Ratio 1:1) it was 26%; on CYP121 [3] (Protein-Ligand Ratio 1:25), 12%. Further, the “ligand binding stoichiometry, CYP121 Dimer” value is reported as 0 at CYP121 [3] (Protein-Ligand Ratio 1:0.5), 0 at CYP121 [3] (Protein-Ligand Ratio 1:1) and 1 at CYP121 [3] (Protein-Ligand Ratio 1:25). Further, the “ligand binding stoichiometry, CYP121 Monomer” value at CYP121 [3] (Protein-Ligand Ratio 1:0.5) stood at 0; at CYP121 [3] (Protein-Ligand Ratio 1:1), 0; at CYP121 [3] (Protein-Ligand Ratio 1:25) it was 1.

In the case of `NC(=O)c1cc(Cl)ccc1N` [compound 7], the “LE (ligand efficiency)” value on CYP121 [1] (setting [4]) amounted to 0.30.

Take `Nc1cccc(Cn2cncn2)c1` [compound 8]: at CYP121 [1] (setting [4]), the “LE (ligand efficiency)” value came to 0.29.

With `Cc1ccc2cc(N)ccc2n1` [compound 9], the “LE (ligand efficiency)” value at CYP121 [1] (setting [4]) was 0.39.
